Source: ChEMBL document CHEMBL4270663, “6-Benzhydryl-4-amino-quinolin-2-ones as Potent Cannabinoid Type 1 (CB1) Receptor Inverse Agonists and Chemical Modifications for Peripheral Selectivity” (J Med Chem, 2018)
Active and inactive are the calls of the source. The calls are words filed in the database; no cut-off is given here.

Columns and labels:
[1] = AUClast in C57BL/6J mouse at 20 mg/kg, po administered via gavage by LC-MS/MS analysis; type: ADME, organism-based; conditions: in vivo
Mus musculus [2] = experiment: Antiobesity activity in diet induced obese C57BL/6J mouse model assessed as decrease in total cholesterol level at 3 to 10 mg/kg, po administered as daily dose measured at day 26 post last dose; type: functional, organism-based
[3] = Drug uptake in plasma of diet-induced obese C57BL/6J mouse model at 1 mg/kg, po administered as daily dose measured at 2 hrs post last dose on day 1; type: ADME, organism-based
[4] = Ratio of drug level in C57BL/6J mouse brain to plasma at 20 mg/kg, po measured after 1 hr; type: ADME, organism-based; conditions: read-out: BPR
[5] = target: Voltage-gated inwardly rectifying potassium channel KCNH2 (Homo sapiens, UniProt Q12809); experiment: Inhibition of human ERG
Sequence of Voltage-gated inwardly rectifying potassium channel KCNH2 (Q12809 whole entry): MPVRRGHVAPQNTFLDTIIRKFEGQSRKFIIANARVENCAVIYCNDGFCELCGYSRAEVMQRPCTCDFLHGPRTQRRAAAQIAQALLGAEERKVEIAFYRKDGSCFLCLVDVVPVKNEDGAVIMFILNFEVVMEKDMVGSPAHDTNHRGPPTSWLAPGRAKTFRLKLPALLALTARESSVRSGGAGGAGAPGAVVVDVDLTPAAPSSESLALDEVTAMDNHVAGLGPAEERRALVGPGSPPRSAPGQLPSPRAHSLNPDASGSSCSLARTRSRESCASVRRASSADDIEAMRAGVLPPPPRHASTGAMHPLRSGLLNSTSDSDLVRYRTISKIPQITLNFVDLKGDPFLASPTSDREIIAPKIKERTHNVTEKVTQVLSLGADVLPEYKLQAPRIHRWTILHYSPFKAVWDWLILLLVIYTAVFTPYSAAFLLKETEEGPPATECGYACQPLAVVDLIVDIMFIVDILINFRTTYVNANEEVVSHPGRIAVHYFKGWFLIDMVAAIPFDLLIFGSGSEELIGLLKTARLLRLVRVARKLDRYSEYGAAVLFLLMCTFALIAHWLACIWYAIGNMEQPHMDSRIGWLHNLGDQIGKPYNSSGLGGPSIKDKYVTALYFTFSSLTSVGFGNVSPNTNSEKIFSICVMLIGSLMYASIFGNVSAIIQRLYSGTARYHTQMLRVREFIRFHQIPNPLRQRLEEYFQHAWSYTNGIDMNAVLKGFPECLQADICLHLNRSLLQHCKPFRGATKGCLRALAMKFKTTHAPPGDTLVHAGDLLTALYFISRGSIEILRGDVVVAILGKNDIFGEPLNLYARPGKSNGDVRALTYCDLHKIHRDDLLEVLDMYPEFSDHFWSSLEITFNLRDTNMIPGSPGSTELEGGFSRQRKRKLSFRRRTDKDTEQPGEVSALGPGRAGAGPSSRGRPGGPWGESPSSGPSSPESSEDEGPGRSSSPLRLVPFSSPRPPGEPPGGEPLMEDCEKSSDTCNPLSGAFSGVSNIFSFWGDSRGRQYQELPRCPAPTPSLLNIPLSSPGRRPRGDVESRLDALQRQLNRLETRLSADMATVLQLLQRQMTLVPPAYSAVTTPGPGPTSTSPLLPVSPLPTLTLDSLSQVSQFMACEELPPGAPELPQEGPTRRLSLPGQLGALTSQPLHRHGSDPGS

[6] = Drug uptake in brain of diet-induced obese C57BL/6J mouse model at 1 mg/kg, po administered as daily dose measured at 2 hrs post last dose on day 2; type: ADME, organism-based; conditions: in vivo
[7] = Drug uptake in brain of diet-induced obese C57BL/6J mouse model at 3 mg/kg, po administered as daily dose measured at 2 hrs post last dose on day 2; type: ADME, organism-based; conditions: in vivo
[8] = Drug uptake in brain of diet-induced obese C57BL/6J mouse model at 10 mg/kg, po administered as daily dose measured at 2 hrs post last dose on day 23; type: ADME, organism-based; conditions: in vivo
[9] = Drug uptake in brain of diet-induced obese C57BL/6J mouse model at 1 mg/kg, po administered as daily dose measured at 2 hrs post last dose on day 23; type: ADME, organism-based; conditions: in vivo
[10] = Half life in C57BL/6J mouse at 20 mg/kg, po administered via gavage by LC-MS/MS analysis; type: ADME, organism-based; conditions: in vivo
Mus musculus [11] = experiment: Antiobesity activity in diet induced obese C57BL/6J mouse model assessed as decrease in food intake at 3 to 10 mg/kg, po administered as daily dose measured every day for 5 days and continuing every other day till day 17; type: functional, organism-based
Salmonella typhimurium = experiment: Mutagenicity in Salmonella typhimurium by Ames test; type: toxicity, organism-based; conditions: salmonella enterica subsp. enterica serovar typhimurium
[12] = Drug uptake in plasma of diet-induced obese C57BL/6J mouse model at 10 mg/kg, po administered as daily dose measured at 2 hrs post last dose on day 1; type: ADME, organism-based
[13] = Drug uptake in plasma of diet-induced obese C57BL/6J mouse model at 30 mg/kg administered as daily dose measured at 2 hrs post last dose on day 5; type: ADME, organism-based
[14] = Drug uptake in plasma of diet-induced obese C57BL/6J mouse model at 3 mg/kg, po administered as daily dose measured at 2 hrs post last dose on day 22; type: ADME, organism-based
[15] = Metabolic stability in human liver microsomes assessed as parent compound remaining at 1 uM after 10 mins in presence of NADPH; type: ADME, microsome; conditions: read-out: Stability
[16] = Ratio of drug level in brain to plasma of diet-induced obese C57BL/6J mouse model at 1 mg/kg, po administered as daily dose measured at 2 hrs post last dose on day 23; type: ADME, organism-based; conditions: read-out: BPR
Mus musculus [17] = experiment: Induction of insulin sensitivity in diet induced obese C57BL/6J mouse model at 3 to 10 mg/kg, po administered as daily dose measured at day 26 post last dose; type: functional, organism-based
Cytochrome P450 3A4 = Cytochrome P450 3A4 (Homo sapiens, UniProt P08684); experiment: Inhibition of CYP3A4 in human liver microsomes using midazolam/testosterone as substrate after 10 to 30 mins by LC/MS analysis; type: ADME
Sequence of Cytochrome P450 3A4 (P08684 whole entry): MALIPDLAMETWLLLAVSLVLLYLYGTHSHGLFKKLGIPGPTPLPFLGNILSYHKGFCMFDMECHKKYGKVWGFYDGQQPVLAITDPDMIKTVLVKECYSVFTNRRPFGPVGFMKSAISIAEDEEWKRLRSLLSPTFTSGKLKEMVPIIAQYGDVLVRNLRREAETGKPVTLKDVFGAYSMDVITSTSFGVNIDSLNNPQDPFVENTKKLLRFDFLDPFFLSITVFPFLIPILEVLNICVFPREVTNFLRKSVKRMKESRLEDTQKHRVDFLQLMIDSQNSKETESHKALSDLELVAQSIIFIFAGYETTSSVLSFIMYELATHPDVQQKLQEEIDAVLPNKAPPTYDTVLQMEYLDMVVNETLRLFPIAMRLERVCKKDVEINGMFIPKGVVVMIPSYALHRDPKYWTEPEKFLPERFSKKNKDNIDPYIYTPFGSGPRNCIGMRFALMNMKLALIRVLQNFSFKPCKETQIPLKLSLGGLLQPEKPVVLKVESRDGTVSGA

[18] = Drug uptake in C57BL/6J mouse plasma at 20 mg/kg, po measured after 1 hr; type: ADME, organism-based
[19] = Protein binding in plasma (unknown origin); type: ADME, cell-free; conditions: unidentified, read-out: PPB
Cannabinoid receptor 2 = Cannabinoid receptor 2 (Homo sapiens, UniProt P34972); experiment: Inverse agonist activity at human CB2 receptor expressed in HEK293 cells assessed as […] cAMP accumulation after 30 mins by HTRF assay; type: functional, cell-based
Sequence of Cannabinoid receptor 2 (P34972 whole entry): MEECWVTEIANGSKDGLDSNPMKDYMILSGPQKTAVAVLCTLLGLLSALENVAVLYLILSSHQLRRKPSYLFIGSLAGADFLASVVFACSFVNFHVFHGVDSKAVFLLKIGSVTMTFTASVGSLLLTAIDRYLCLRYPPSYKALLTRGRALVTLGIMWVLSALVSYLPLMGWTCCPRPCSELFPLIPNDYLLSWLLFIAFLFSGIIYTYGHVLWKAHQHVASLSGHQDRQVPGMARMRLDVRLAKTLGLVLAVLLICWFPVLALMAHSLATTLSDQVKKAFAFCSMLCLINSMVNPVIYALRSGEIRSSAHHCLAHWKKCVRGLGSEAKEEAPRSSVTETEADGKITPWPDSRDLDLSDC

[20] = Half life in C57BL/6J mouse at 5 mg/kg, iv by LC-MS/MS analysis; type: ADME, organism-based; conditions: in vivo
Cytochrome P450 1A2 = target: T1, Cytochrome P450 1A2 (Homo sapiens, UniProt P05177); experiment: Inhibition of CYP1A2 in human liver microsomes using phenacetin as substrate after 10 to 30 mins by LC/MS analysis; type: ADME
T1 sequence (P05177 whole entry): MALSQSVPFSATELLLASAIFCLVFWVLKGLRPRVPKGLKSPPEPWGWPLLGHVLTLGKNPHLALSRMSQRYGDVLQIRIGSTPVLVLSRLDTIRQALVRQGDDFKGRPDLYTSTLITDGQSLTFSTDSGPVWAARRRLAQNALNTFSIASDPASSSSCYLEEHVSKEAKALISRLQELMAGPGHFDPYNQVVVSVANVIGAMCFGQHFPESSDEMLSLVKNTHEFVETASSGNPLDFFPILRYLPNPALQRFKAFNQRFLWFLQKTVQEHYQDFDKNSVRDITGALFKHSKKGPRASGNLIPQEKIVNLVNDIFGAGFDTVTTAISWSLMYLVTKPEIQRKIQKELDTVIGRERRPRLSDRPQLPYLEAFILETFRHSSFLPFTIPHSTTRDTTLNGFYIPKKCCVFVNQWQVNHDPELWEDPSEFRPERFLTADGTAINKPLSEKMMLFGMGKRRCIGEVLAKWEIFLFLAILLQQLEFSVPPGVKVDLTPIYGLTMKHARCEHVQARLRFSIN

[21] = Drug uptake in plasma of wild type CF-1 mouse at 20 mg/kg, po measured at 2 hrs post last dose on day 1; type: ADME, organism-based
[22] = Oral bioavailability in C57BL/6J mouse at 20 mg/kg administered via gavage by LC-MS/MS analysis; type: ADME, organism-based; conditions: in vivo
Cytochrome P450 2D6 = Cytochrome P450 2D6 (Homo sapiens, UniProt P10635); experiment: Inhibition of CYP2D6 in human liver microsomes using dextromethorphan as substrate after 10 to 30 mins by LC/MS analysis; type: ADME
Sequence of Cytochrome P450 2D6 (P10635 whole entry): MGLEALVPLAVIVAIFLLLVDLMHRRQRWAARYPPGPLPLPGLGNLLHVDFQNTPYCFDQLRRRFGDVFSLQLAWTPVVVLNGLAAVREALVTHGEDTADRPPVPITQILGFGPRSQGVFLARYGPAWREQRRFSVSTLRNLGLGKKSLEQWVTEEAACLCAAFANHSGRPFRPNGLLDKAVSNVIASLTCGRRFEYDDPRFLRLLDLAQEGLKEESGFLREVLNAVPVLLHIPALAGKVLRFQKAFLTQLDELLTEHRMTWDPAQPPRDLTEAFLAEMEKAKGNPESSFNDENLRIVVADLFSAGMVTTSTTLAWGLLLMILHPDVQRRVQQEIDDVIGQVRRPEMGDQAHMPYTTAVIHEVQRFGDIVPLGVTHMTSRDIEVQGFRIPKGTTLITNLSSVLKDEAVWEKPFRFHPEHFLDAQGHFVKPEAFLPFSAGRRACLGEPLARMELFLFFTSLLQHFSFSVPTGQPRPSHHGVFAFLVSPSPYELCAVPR

[23] = Cmax in C57BL/6J mouse at 20 mg/kg, po administered via gavage by LC-MS/MS analysis; type: ADME, organism-based; design: dose 20 mg/kg, route oral; conditions: in vivo
[24] = Ratio of drug level in brain to plasma of wild type CF-1 mouse at 20 mg/kg, po; type: ADME, organism-based; conditions: read-out: BPR
[25] = Drug uptake in brain of wild type CF-1 mouse at 20 mg/kg, po measured at 2 hrs post last dose on day 2; type: ADME, organism-based; conditions: in vivo
Mus musculus [26] = experiment: Antiobesity activity in diet induced obese C57BL/6J mouse model assessed as decrease in body weight at 3 to 10 mg/kg, po administered as daily dose measured every day for 5 days and continuing every other day till day 17; type: functional, organism-based
[27] = Drug uptake in plasma of MDR1a knockout CF-1 mouse at 20 mg/kg, po measured at 2 hrs post last dose on day 1; type: ADME, organism-based
Cannabinoid receptor 1 [28] = target: T2, Cannabinoid receptor 1 (Homo sapiens, UniProt P21554); experiment: Potency index, ratio of rimonabant IC50 to compound IC50 for displacement of [3H]-CP-55940 from human CB1 receptor expressed in CHO-K1 cell membranes
T2 sequence (P21554 whole entry): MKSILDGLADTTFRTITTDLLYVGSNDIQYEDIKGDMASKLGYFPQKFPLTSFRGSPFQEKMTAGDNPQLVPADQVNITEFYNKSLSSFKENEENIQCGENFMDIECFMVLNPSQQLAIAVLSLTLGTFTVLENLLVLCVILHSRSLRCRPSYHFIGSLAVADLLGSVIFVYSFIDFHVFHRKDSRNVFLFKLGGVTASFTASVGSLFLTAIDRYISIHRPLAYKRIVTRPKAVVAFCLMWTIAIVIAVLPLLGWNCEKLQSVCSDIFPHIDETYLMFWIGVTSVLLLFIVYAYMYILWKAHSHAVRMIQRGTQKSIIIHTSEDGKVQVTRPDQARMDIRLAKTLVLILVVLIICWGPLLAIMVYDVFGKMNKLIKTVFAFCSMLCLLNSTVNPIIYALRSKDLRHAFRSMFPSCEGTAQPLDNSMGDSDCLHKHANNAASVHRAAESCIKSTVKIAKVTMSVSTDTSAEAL

Cannabinoid receptor 1 [29] = target: T2, Cannabinoid receptor 1; experiment: biochemical; type: cell-based, CHO

O=c1cc(NC2CCN(S(=O)(=O)C(F)(F)F)CC2)c2cc(C(c3ccc(Cl)cc3)c3ccc(Cl)cc3)ccc2[nH]1
AUC(0-t) [1]: 28.4 µM·h | Activity (Mus musculus [2]): Active | concentration at 2 h [3]: 0.508 µM | Kp at 1 h [4]: 0.0073 | IC50 [5]: > 50 µM | Drug uptake [6]: < 4 nmol/g | Drug uptake [7]: < 4 nmol/g | Drug uptake [8]: 0.329 nmol/g | Drug uptake [9]: 0.06 nmol/g | half-life [10]: 7.26 h | Activity (Mus musculus [11]): Active | Activity (Salmonella typhimurium): Non-Toxic | concentration at 2 h [12]: 4.08 µM | concentration at 2 h [13]: 18.5 µM | concentration at 2 h [14]: 2.55 µM | remaining at 10 min, 1 µM [15]: 100% | Kp at 2 h [16]: 0.072 | Activity (Mus musculus [17]): Active | IC50 (Cytochrome P450 3A4): > 10 µM | concentration at 1 h [18]: 1.72 µM | fraction unbound [19]: 0.0001 | EC50 (Cannabinoid receptor 2): > 10 µM | half-life [20]: 6.97 h | IC50 (Cytochrome P450 1A2): > 10 µM | concentration at 2 h [21]: 3.92 µM | bioavailability [22]: 13% | IC50 (Cytochrome P450 2D6): > 10 µM | Cmax [23]: 3.7 µM | Kp [24]: 0.027 | Drug uptake [25]: 0.104 nmol/g | Activity (Mus musculus [26]): Active | concentration at 2 h [27]: 4.95 µM | Ratio IC50 (Cannabinoid receptor 1 [28]): 6 | IC50 (Cannabinoid receptor 1 [29]): 0.0013 µM
